# In patent US10253004B2, “Indanylaminopyrazinylcyclopropanecarboxylic acids, pharmaceutical compositions and uses thereof” (Boehringer Ingelheim International GmbH, priority 2017, dated 2019):
# Tested on: not listed separately
# Experiment: Chemical stability (degradation kinetics) in acidic aqueous media, HPLC recovery
# Format: physicochemical
# Conditions: pH ca. 1.2, 37° C., acetonitrile/0.1 M aqueous HCl (2:3)
# Experimental: Degradation kinetics is used to simulate chemical stability of compounds in the acidic part of the gastro intestinal tract. […] Their application as medical drugs to treat human diseases is therefore less restricted and troublesome.
# The chemical stability of the compounds of the invention at pH value of ca. 1.2 is determined as follows:
# Compound is dissolved in an HPLC vial either in a mixture of acetonitrile/0.1 M aqueous HCl (2:3; pH ca. 1.2) or in a mixture of acetonitrile/Mcllvaine buffer pH 7.4 (2:3) to get a concentration of approximately 0.25 mg/ml. The vial was then transferred into an HPLC autosampler system and maintained at a temperature of 37° C. A first sample is taken and injected immediately into a standard HPLC system with a UV DAD detector. Further samples are injected after 2, 4, 6, 8 and 10 hours. Amount of degraded compound is measured by determining the recovery rate of compound [%] for each injection using an HPLC standard gradient method. Therefore the peak area of the main peak for the first injection (AUt0) is determined and set as 100%. Peak area of the main peak is determined also for the further injections (AUtn, n=2, 4, 6, 8, 10) and expressed as fraction of […] [%].
row,SMILES,Amount of degradation after 2 h
1,"Cc1cc(C(=O)NCC(C)(C)O)cc(C)c1-c1ccc(F)c2c1CC[C@H]2Oc1ccc([C@H]2C[C@@H]2C(=O)O)cc1 [Example 15 in WO 2013/178575, reference compound]",3%

# Biological target: human GPR40 receptor (Homo sapiens (Human), UniProt O14842)
# Experiment: IP1 accumulation measurements using the IPOne assay system
# Format: cell-based
# Conditions: 1321N1 cells stably expressing human GPR40; IP1 accumulation; read-out: EC50
# Experimental: IP1 accumulation measurements using the IPOne assay system—1321N1 cells stably expressing human GPR40 receptor (Euroscreen, Belgium) are seeded 24 h before the assay in white 384-well plates in culture medium containing 10% FCS, 1% Na-Pyruvate and 400 μg/mL G418. IP1 is assayed according to the manufacturer's description (Cisbio Bioassays, France). In brief, the assay is started by substitution of the culture medium by stimulation buffer (Hepes 10 mM, CaCl2 1 mM, MgCl2 0.5 mM, KCl 4.2 mM, NaCl 146 mM, glucose 5.5 mM and LiCl 50 mM, pH 7.4). Cells are stimulated for 1 h at 37° C., 5% CO2 by addition of the compounds that are diluted in stimulation buffer containing LiCl. Assays are stopped by adding HTRF-conjugates (IP1-d2 and Anti-IP1 cryptate Tb) and lysis buffer, provided by the manufacturer. After an incubation time of 1 h at room temperature plates are measured using an EnVision™, Perkin Elmer. The obtained fluorescence ratios at 665/615 […] are then used to calculate the pEC50 values using Assay Explorer 3.3 Software (Accelrys, Inc.) by interpolation using an IP1 reference curve and subsequent sigmoidal curve fitting allowing for a variable hill slope.
# Sequence of human GPR40 receptor (O14842 whole entry): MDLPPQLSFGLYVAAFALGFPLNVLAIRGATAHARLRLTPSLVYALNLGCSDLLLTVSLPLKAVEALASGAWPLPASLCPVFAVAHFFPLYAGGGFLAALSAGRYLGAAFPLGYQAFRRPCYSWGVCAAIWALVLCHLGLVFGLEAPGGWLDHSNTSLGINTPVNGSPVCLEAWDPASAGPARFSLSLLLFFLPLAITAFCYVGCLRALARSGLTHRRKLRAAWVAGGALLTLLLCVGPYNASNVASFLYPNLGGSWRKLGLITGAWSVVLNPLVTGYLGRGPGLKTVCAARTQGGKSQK
row,SMILES,EC50
1,Cc1cc(-c2cc(=O)n(C)cn2)cc(C)c1-c1ccc(F)c2c1CC[C@H]2Nc1cnc([C@H]2C[C@@H]2C(=O)O)cn1 [Example 11],6 nM
2,Cc1cc(OCC2CCOC2)cc(C)c1-c1ccc(F)c2c1CC[C@H]2Nc1cnc([C@H]2C[C@@H]2C(=O)O)cn1 (stereo partly shown) [Example 43],18 nM
3,COc1cc(OC)c(-c2ccc(F)c3c2CC[C@H]3Nc2cnc([C@H]3C[C@@H]3C(=O)O)cn2)c(OC)c1 [Example 24],128 nM
4,COc1cc(C)c(-c2ccc(F)c3c2CC[C@H]3Nc2cnc([C@H]3C[C@@H]3C(=O)O)cn2)c(C)c1 [Example 22],8 nM
5,Cc1cc(OCC(=O)O)cc(C)c1-c1ccc(F)c2c1CC[C@H]2Nc1cnc([C@H]2C[C@@H]2C(=O)O)cn1 [Example 48],839 nM
6,Cc1cc(O[C@@H]2CCOC2)cc(C)c1-c1ccc(F)c2c1CC[C@H]2Nc1cnc([C@H]2C[C@@H]2C(=O)O)cn1 [Example 27],13 nM
7,Nc1cc(F)c(-c2ccc(F)c3c2CC[C@H]3Nc2cnc([C@H]3C[C@@H]3C(=O)O)cn2)c(F)c1 [Example 18],150 nM
8,N#CC1(c2ccccc2-c2ccc(F)c3c2CC[C@H]3Nc2cnc([C@H]3C[C@@H]3C(=O)O)cn2)CC1 [Example 26],367 nM
9,Cc1cc(-c2ccnn2C)cc(C)c1-c1ccc(F)c2c1CC[C@H]2Nc1cnc([C@H]2C[C@@H]2C(=O)O)cn1 [Example 36],12 nM
10,COc1cc(OC)c(F)c(-c2ccc(F)c3c2CC[C@H]3Nc2cnc([C@H]3C[C@@H]3C(=O)O)cn2)c1F [Example 37],81 nM
11,Cc1cc(OC2CCOCC2)cc(C)c1-c1ccc(F)c2c1CC[C@H]2Nc1cnc([C@H]2C[C@@H]2C(=O)O)cn1 [Example 31],9 nM
12,Cc1cc(CO)cc(C)c1-c1ccc(F)c2c1CC[C@H]2Nc1cnc([C@H]2C[C@@H]2C(=O)O)cn1 [Example 30],20 nM
13,"Cc1cc(-c2nnn(C)n2)cc(C)c1-c1cccc2c1CC[C@H]2Nc1cnc([C@H]2C[C@@H]2C(=O)O)cn1 [Example 6, (1S,2S)-2-(5-{(R)-4-[2,6-Dimethyl-4-(2-methyl-2H-tetrazol-5-yl)-phenyl]-indan-1-ylamino}-pyrazin-2-yl)-cyclopropanecarboxylic acid]",3 nM
14,Cc1cc(OCC2(O)CCSCC2)cc(C)c1-c1ccc(F)c2c1CC[C@H]2Nc1cnc([C@H]2C[C@@H]2C(=O)O)cn1 [Example 52],10 nM
15,CC(C)c1ccccc1-c1ccc(F)c2c1CC[C@H]2Nc1cnc([C@H]2C[C@@H]2C(=O)O)cn1 [Example 40],16 nM
16,CNC(=O)c1cc(C)c(-c2ccc(F)c3c2CC[C@H]3Nc2cnc([C@H]3C[C@@H]3C(=O)O)cn2)c(C)c1 [Example 45],23 nM
17,CCc1cccc(CC)c1-c1ccc(F)c2c1CC[C@H]2Nc1cnc([C@H]2C[C@@H]2C(=O)O)cn1 [Example 49],4 nM
18,COc1cc(-c2cc(C)c(-c3ccc(F)c4c3CC[C@H]4Nc3cnc([C@H]4C[C@@H]4C(=O)O)cn3)c(C)c2)ccn1 [Example 42],5 nM
19,Cc1cc(OCC2(O)CCOCC2)cc(C)c1-c1ccc(F)c2c1CC[C@H]2Nc1cnc([C@H]2C[C@@H]2C(=O)O)cn1 [Example 41],11 nM
20,COc1cc(OC)c(Cl)c(-c2ccc(F)c3c2CC[C@H]3Nc2cnc([C@H]3C[C@@H]3C(=O)O)cn2)c1Cl [Example 29],5 nM
21,Cc1cnc(-c2cc(C)c(-c3ccc(F)c4c3CC[C@H]4Nc3cnc([C@H]4C[C@@H]4C(=O)O)cn3)c(C)c2)nc1 [Example 38],4 nM
22,"Cc1cc(OCCCS(C)(=O)=O)cc(C)c1-c1ccc(F)c2c1CC[C@H]2Nc1cnc([C@@H]2C[C@H]2C(=O)O)cn1 [Example 5, (1R,2R)-2-(5-{(R)-7-Fluoro-4-[4-(3-methanesulfonyl-propoxy)-2,6-dimethyl-phenyl]-indan-1-ylamino}-pyrazin-2-yl)-cyclopropanecarboxylic acid]",519 nM
23,Cc1cc(OCC2CCOCC2)cc(C)c1-c1ccc(F)c2c1CC[C@H]2Nc1cnc([C@H]2C[C@@H]2C(=O)O)cn1 [Example 13],4 nM

row,SMILES,EC50
1,Cc1cc(C(=O)N(C)C)cc(C)c1-c1ccc(F)c2c1CC[C@H]2Nc1cnc([C@H]2C[C@@H]2C(=O)O)cn1 [Example 20],75 nM
2,Cc1cc(OCC2(C)COC2)cc(C)c1-c1ccc(F)c2c1CC[C@H]2Nc1cnc([C@H]2C[C@@H]2C(=O)O)cn1 [Example 32],7 nM
3,"COc1ccc(-c2cccc3c2CC[C@H]3Nc2cnc([C@H]3C[C@@H]3C(=O)O)cn2)cc1F [Example 8, (1S,2S)-2-{5-[(R)-4-(3-Fluoro-4-methoxy-phenyl)-indan-1-ylamino]-pyrazin-2-yl}-cyclopropanecarboxylic acid]",163 nM
4,"Cc1cc(OCCC(C)(C)O)cc(C)c1-c1ccc(F)c2c1CC[C@H]2Nc1cnc(C2C[C@@H]2C(=O)O)cn1 (stereo partly drawn) [Example 1, trans-2-(5-{(R)-7-Fluoro-4-[4-(3-hydroxy-3-methyl-butoxy)-2,6-dimethyl-phenyl]-indan-1-ylamino}-pyrazin-2-yl)-cyclopropanecarboxylic acid]",7 nM
5,Cc1cc(C(N)=O)cc(C)c1-c1ccc(F)c2c1CC[C@H]2Nc1cnc([C@H]2C[C@@H]2C(=O)O)cn1 [Example 10],24 nM
6,Cc1cc(-c2ccc(=O)n(C)c2)cc(C)c1-c1ccc(F)c2c1CC[C@H]2Nc1cnc([C@H]2C[C@@H]2C(=O)O)cn1 [Example 33],6 nM
7,O=C(O)[C@H]1C[C@@H]1c1cnc(N[C@@H]2CCc3c(-c4c(Cl)cccc4Cl)ccc(F)c32)cn1 [Example 25],7 nM
8,"COc1cnc(-c2ccc(-c3cccc4c3CC[C@H]4Nc3cnc([C@H]4C[C@@H]4C(=O)O)cn3)cc2)cn1 [Example 9, (1S,2S)-2-(5-{(R)-4-[4-(5-Methoxy-pyrazin-2-yl)-phenyl]-indan-1-ylamino}-pyrazin-2-yl)-cyclopropanecarboxylic acid]",35 nM
9,"Cc1cc(OCCC(C)(C)O)cc(C)c1-c1ccc(F)c2c1CC[C@H]2Nc1cnc([C@@H]2C[C@H]2C(=O)O)cn1 [Example 3, (1R,2R)-2-(5-{(R)-7-Fluoro-4-[4-(3-hydroxy-3-methyl-butoxy)-2,6-dimethyl-phenyl]-indan-1-ylamino}-pyrazin-2-yl)-cyclopropanecarboxylic acid]",164 nM
10,Cc1cc(-c2nnnn2CC(C)(C)O)cc(C)c1-c1ccc(F)c2c1CC[C@H]2Nc1cnc([C@H]2C[C@@H]2C(=O)O)cn1 [Example 39],3 nM
11,Cc1cccc(C)c1-c1ccc(F)c2c1CC[C@H]2Nc1cnc([C@H]2C[C@@H]2C(=O)O)cn1 [Example 15],7 nM
12,Cc1cc(C#N)cc(C)c1-c1ccc(F)c2c1CC[C@H]2Nc1cnc([C@H]2C[C@@H]2C(=O)O)cn1 [Example 51],9 nM
13,Cc1ccc(Cl)c(-c2ccc(F)c3c2CC[C@H]3Nc2cnc([C@H]3C[C@@H]3C(=O)O)cn2)c1Cl [Example 21],4 nM
14,O=C(O)[C@H]1C[C@@H]1c1cnc(N[C@@H]2CCc3c(-c4c(F)cccc4F)ccc(F)c32)cn1 [Example 16],77 nM
15,Cc1cc(C(=O)O)cc(C)c1-c1ccc(F)c2c1CC[C@H]2Nc1cnc([C@H]2C[C@@H]2C(=O)O)cn1 [Example 14],355 nM
16,O=C(O)[C@H]1C[C@@H]1c1cnc(N[C@@H]2CCc3c(-c4ccc(-c5cnco5)cc4)ccc(F)c32)cn1 [Example 23],144 nM
17,Cc1cc(OCC2(O)CCS(=O)(=O)CC2)cc(C)c1-c1ccc(F)c2c1CC[C@H]2Nc1cnc([C@H]2C[C@@H]2C(=O)O)cn1 [Example 12],14 nM
18,O=C(O)[C@H]1C[C@@H]1c1cnc(N[C@@H]2CCc3c(-c4c(F)cc(OC5CC5)cc4F)ccc(F)c32)cn1 [Example 19],56 nM
19,O=C(O)[C@H]1C[C@@H]1c1cnc(N[C@@H]2CCc3c(-c4c(F)cc(F)cc4F)ccc(F)c32)cn1 [Example 50],74 nM
20,O=C(O)[C@H]1C[C@@H]1c1cnc(N[C@@H]2CCc3c(-c4ccccc4C(F)(F)F)ccc(F)c32)cn1 [Example 17],23 nM
21,COc1cc(F)c(-c2ccc(F)c3c2CC[C@H]3Nc2cnc([C@H]3C[C@@H]3C(=O)O)cn2)c(F)c1 [Example 44],90 nM
22,Cc1cc(-c2cnccn2)cc(C)c1-c1ccc(F)c2c1CC[C@H]2Nc1cnc([C@H]2C[C@@H]2C(=O)O)cn1 [Example 54],4 nM
